# Where two headings read alike, the source gives them in different places.
# What was measured:
# [1] = Intestinal tissue distribution study following a single oral administration in rats; assay type: in vivo, Sprague Dawley rats; settings: male rats, single oral 25 mg/kg; for Kp: read-out: Tissue-to-plasma concentration ratio
# Protocol: Nine male Sprague Dawley rats were orally administered Compound 1 at a dose of 25 mg/kg with a dosing volume of 10 mL/kg using purified water as the vehicle. At 0.25, 2, and 6 hours post-dosing, three animals were euthanized at each time point. A 200 μL whole blood sample was collected via cardiac puncture and plasma was separated by centrifugation.
# The duodenum, jejunum, ileum, and colon were collected, contents removed, rinsed with ice-cold water, and surface moisture was blotted with filter paper before weighing. For each gram of tissue, 5 mL of methanol-water (1:3, v/v) was added for homogenization. The drug concentrations in plasma and intestinal tissue homogenates of each intestinal segment tissue were measured using LC-MS/MS.
# [2] = Single-dose intravenous and oral pharmacokinetic study in rats; assay type: in vivo, Sprague-Dawley (SD) rats; settings: male SD rats
# Protocol: Six male Sprague-Dawley (SD) rats were randomly divided into two groups, with three rats in each group. Compound 1 was administered either by intravenous injection at a dose of 2 mg/kg or by oral gavage at a dose of 10 mg/kg. The dosing volumes were 5 mL/kg for intravenous administration and 10 mL/kg for oral administration, with purified water used as the solvent. For the intravenous group, blood samples were collected at 0.083, 0.25, 0.5, 1, 2, 4, 6, 8, and 24 hours post-dose. For the oral group, blood samples were collected at 0.25, 0.5, 1, 2, 4, 6, 8, and 24 hours post-dose. Plasma samples were prepared by centrifugation and stored at −70° C. The plasma concentration of Compound 1 was determined using LC-MS/MS.
# [3] = Sprague-Dawley, rat, IV 2 mg/kg, plasma
structure (smiles),measurement,setting,value
CC(=O)c1c(C)c2c(n(C3CCCC3)c1=O)=NC(Nc1ccc(N3CCN(S(=O)(=O)NCCN)CC3)cn1)NC=2 (centres unmarked) [Compound 1],Kp,"[1]; Sprague Dawley, rat, Colon, ratio of AUC values",502
same,Kp,"[1]; Sprague Dawley, rat, Ileum, ratio of AUC values",4750
same,Kp,"[1]; Sprague Dawley, rat, Jejunum, ratio of AUC values",4300
same,AUC(0-t),"[1]; Sprague Dawley, rat, Plasma, read-out: AUC0-t",1.26 ng·h/mL
same,AUC(0-t),[1]; Colon,632 ng·h/g
same,AUC(0-t),[1]; Duodenum,19300 ng·h/g
same,Tissue-to-plasma concentration ratio,"[1]; Duodenum, ratio of AUC values",15300
same,AUC(0-t),[1]; Ileum,5980 ng·h/g
same,AUC(0-t),[1]; Jejunum,5420 ng·h/g
same,AUC(0-t),[2]; [3],602 ± 161 ng·h/mL
same,clearance,[2]; [3],56.7 ± 17.3 mL/min/kg
same,half-life,[2]; [3],5.55 ± 0.503 h
same,Vd,"[2]; Sprague-Dawley, rat, IV 2 mg/kg, plasma, read-out: Vdss",9.61 ± 5.43 L/kg
same,plasma concentrations following oral administration,"[2]; PO 10 mg/kg, all samples 0.25-24 h, below the lower limit of quantification",< 1 ng/mL

# — patent US20260207604A1, “COMPOUND AND USE THEREOF” (ONQUALITY PHARMACEUTICALS CHINA LTD., priority 2022, published 2026)
